# Data reported in US9522123B2, “Use of one or a combination of phyto-cannabinoids in the treatment of epilepsy” (GW Pharma Limited, priority 2009, dated 2016).
# What was measured:
# [1] = tested on: seizures in institutionalized children; settings: 5 institutionalized children not responding to phenobarbital and phenytoin; cited from earlier work
# [2] = tested on: pilocarpine-induced seizures; test: Pilocarpine-induced model of temporal lobe seizures; type: in vivo, rat; settings: pilocarpine 380 mg/kg
# Procedure: (§1) Pure THCV was injected intra-peritoneally (IP) in the standard vehicle (1:1:18 ethanol:Cremophor:0.9% w/v NaCl) at doses of 0.025, 0.25 and 2.5 mg/kg alongside animals that received vehicle alone at a matched volume (n≧14 for each group). 15 minutes later methylscopolamine (1 mg/kg; to reduce peripheral muscarinic effects of pilocarpine) was administered followed, 45 minutes later by pilocarpine (380 mg/kg, IP) administration.
# as §1, with “CBD” for “THCV”, “1, 10” for “0.025, 0.25”, “100” for “2.5”
# PTZ-induced seizures = test: PTZ (pentylenetetrazole)-induced model of generalised seizures; type: in vivo, rat
# [3] = tested on: penicillin-induced seizures; test: Penicillin-induced model of partial seizures; type: in vivo, rat; settings: for development of the most severe seizures (tonic-clonic seizures without postural control): 150 IU penicillin
# Procedure: CBD (1, 10 and 100 mg/kg) or CBD vehicle (1:1:18 ethanol:Cremophor: 0.9% w/v NaCl) was administered i.p. to adult male Wistar rats (>250 g). One week prior to this, animals had been surgically implanted with a cannula into the right lateral ventricle under anaesthesia. One hour after CBD administration, 150 IU penicillin was infused into the right lateral ventricle in 1.5 μl saline solution over one minute and seizure behaviour video recorded for two hours.
# Following detailed examination of animal responses to penicillin alone (using data obtained from vehicle control groups, a finalised seizure scoring scale for penicillin-induced partial seizures has been derived. The following scoring system which was derived from several existing and published scoring systems for this model, will therefore be used for analysis of drug effects upon such seizures.
smiles,measurement,setting,value
"CCCCCc1cc(O)c2c(c1)OC(C)(C)[C@@H]1CCC(C)=C[C@@H]21 [THC, tetrahydrocanibinol]",seizure outcome,[1],"One became entirely free of seizures, one became almost completely free of seizures, and the other three did no worse than before"
"CCCc1cc(O)c2c(c1)OC(C)(C)[C@@H]1CCC(C)=C[C@@H]21 [THCV, tetrahydrocannabivarin]",percentage of animals showing bilateral forelimb clonus with rearing and falling,[2]; 0.25 mg/kg THCV,significant increase
same,percentage of animals showing bilateral forelimb clonus with rearing and falling,"[2]; THCV doses other than 0.25 mg/kg (0.025, 2.5 mg/kg)",this effect was not seen at any other dose
same,latency to the onset of seizure,"[2]; pure THCV 0.025, 0.25, 2.5 mg/kg IP",No significant effect
same,mean maximum severity of seizure,"[2]; pure THCV 0.025, 0.25, 2.5 mg/kg",no effect
same,percentage mortality vs control,[2]; pure THCV any dose,No significant change
same,percentage of animals showing bilateral forelimb clonus,[2]; pure THCV any dose,no significant changes
same,percentage of animals showing tonic-clonic seizures,[2]; pure THCV any dose,no significant changes
same,percentage of animals showing unilateral forelimb clonus,[2]; pure THCV any dose,no significant changes
same,latency to first manifestation of seizure-like behaviour,"PTZ-induced seizures; pure THCV 0.025, 0.25, 2.5 mg/kg vs vehicle, 80 mg/kg PTZ",increased latency
same,latency to score of [5],"PTZ-induced seizures; pure THCV all doses, 80 mg/kg PTZ, p=0.013 at highest dose","increased latencies, reaching a significant level at the highest dose of THCV"
same,latency to score of [3],"PTZ-induced seizures; pure THCV all doses, 80 mg/kg PTZ, p=0.017 at highest dose","increased latencies, reaching a significant level at the highest dose of THCV"
same,delay of seizure onset (latency to first seizure sign),"PTZ-induced seizures; pure THCV highest dose 2.5 mg/kg, 80 mg/kg PTZ, p=0.02",delay of onset was significant
same,duration of PTZ-induced seizures in animals that survived,"PTZ-induced seizures; pure THCV medium dose 0.25 mg/kg vs vehicle, 80 mg/kg PTZ, p=0.03",significantly shorter
"C=C(C)[C@@H]1CCC(C)=C[C@H]1c1c(O)cc(CCCCC)cc1O [CBD, cannabidiol]",frequency with which animals experienced the most severe seizures,"[3]; 10 mg/kg CBD vs vehicle, p=0.071",near-significant effect
same,development of the most severe seizures (tonic-clonic seizures without postural control),"[3]; 100 mg/kg CBD i.p., p=0.001",completely prevented development
same,frequency with which animals experienced the most severe seizures,"[3]; 100 mg/kg CBD vs vehicle, p=0.006",significant decrease
same,median severity of penicillin-induced seizures,"[3]; 100 mg/kg CBD vs vehicle, p=0.012",significantly reduced
same,mortality compared to vehicle,"[3]; 100 mg/kg CBD, p=0.057",near-significant effect
same,development of the most severe seizures (tonic-clonic seizures without postural control),"[3]; 1 and 10 mg/kg CBD i.p., p=0.076 for both",Near-significant decreases
same,proportion of animals that remained seizure-free,"[3]; all doses of CBD (1, 10 and 100 mg/kg), p<0.001",significantly increased
same,percentage mortality vs control,[2]; 10 mg/kg CBD,significant increase
same,percentage duration of time spent in a tonic-clonic state compared to the total duration of the seizure period,[2]; CBD 1 mg/kg and 100 mg/kg,significantly reduced
same,percentage of animals exhibiting tonic-clonic seizures,[2]; CBD 1 mg/kg and 100 mg/kg,significantly reduced
same,mean frequency of all other seizure scores,"[2]; CBD 1, 10, 100 mg/kg vs control",no significant differences
same,mean tonic-clonic frequency,"[2]; CBD all doses tested (1, 10, 100 mg/kg)",significant reduction
same,percentage of animals manifesting with bilateral forelimb clonus with rearing and falling,[2]; CBD doses >1 mg/kg,significantly reduces
same,percentage of animals showing unilateral forelimb clonus,[2]; CBD doses >1 mg/kg,significant decreases
same,latency to the onset of seizure,"[2]; pure CBD 1, 10, 100 mg/kg IP",No significant effect
same,mean maximum severity of seizure,"[2]; pure CBD 1, 10, 100 mg/kg",no effect
same,percentage of animals exhibiting bilateral forelimb clonus,"[2]; pure CBD 1, 10, 100 mg/kg",no significant differences
same,animals that died (mortality),"PTZ-induced seizures; 100 mg/kg CBD IP, 60 minutes before 80 mg/kg PTZ, p<0.001 vs vehicle",6.7%
